The text below walks through data of patent US8263592B2, “Equilibrative nucleoside transporter ENT1 inhibitors” (Janssen Pharmaceutica NV, priority 2007, dated 2012).

One data set addresses T1, human ENT1 transporter (Homo sapiens, UniProt Q99808).
T1 construct: with washed red blood cells diluted 1:200 in assay buffer; from tissue; host or cells: human erythrocytes (washed red blood cells from whole blood)
T1 sequence (Q99808 1-456): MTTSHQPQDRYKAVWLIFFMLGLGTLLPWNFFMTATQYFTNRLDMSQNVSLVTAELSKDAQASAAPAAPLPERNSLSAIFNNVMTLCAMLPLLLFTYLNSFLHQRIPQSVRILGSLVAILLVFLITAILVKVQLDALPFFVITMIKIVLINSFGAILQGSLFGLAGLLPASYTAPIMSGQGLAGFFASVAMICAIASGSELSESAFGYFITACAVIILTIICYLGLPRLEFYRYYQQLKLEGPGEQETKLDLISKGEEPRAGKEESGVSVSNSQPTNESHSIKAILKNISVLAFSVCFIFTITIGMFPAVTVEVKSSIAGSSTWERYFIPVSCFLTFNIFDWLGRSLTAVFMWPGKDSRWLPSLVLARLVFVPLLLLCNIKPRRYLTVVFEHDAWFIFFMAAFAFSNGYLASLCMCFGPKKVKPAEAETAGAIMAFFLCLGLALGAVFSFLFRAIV
Briefly: hENT1-NBMPR-ERYTH binding assay ([3H]NBMPR, human erythrocytes). To be noted: [3H]NBMPR 1 nM, washed human red blood cells 1:200, 30 minutes at room temperature; pIC50=-log(IC50); read-out: pIC50 values for ENT1 transporter inhibition (converted). The procedure: D. Pharmacological Data D.1hENT1-NBMPR-ERYTH Assay
The affinity of compounds to the human ENT1 transporter was determined in a binding assay using [^3H]NBMPR (19.9 Ci/mmol) from Moravek Biochemicals (Brea, Calif.). Erythrocytes were isolated from freshly isolated EDTA anti-coagulated human blood. 4 ml human whole blood was diluted in 11 ml wash buffer (20 mM MOPS, 130 mM NaCl, pH 7.4) and centrifuged at 800 g for 5 minutes. Erythrocytes were washed two times with wash buffer by centrifugation at 800 g for 5 minutes and then resuspended in wash buffer to the original whole blood volume and stored at −80° C. Binding experiments were performed at apparent binding equilibrium (30 minutes incubation at room temperature) with washed red blood cells diluted 1:200 in assay buffer (20 mM Tris, 140 mM NaCl, […], 2 mM MgCl2, 0.1 mM EDTA, 5 mM Glucose, pH 7.4) and 1 nM of radioligand. Test compounds were pre-incubated with the red blood cells for 30 minutes at room temperature. Non-specific binding was estimated in the presence of 1 μM Draflazine. The incubation was stopped by rapid filtration using Unifilter-96 GF/C filter plates on a 96-well PerkinElmer Filtermate harvester followed by three washes with ice-cold assay buffer. Bound radioactivity was determined by liquid scintillation counting (Topcount, (PerkinElmer)).

Counter-ions that a name gives are not always drawn.

In the case of `COCCCNc1cc2c(cc1C)C(=O)CC1(CCN(CCNC(=O)c3c(Cl)cccc3Cl)CC1)O2` [Compound 133], the IC50 on human ENT1 transporter was 1.82 nM.
The molecule `Nc1ccc2c(c1Cl)OC1(CCN(CCNC(=O)c3c(Cl)cccc3Cl)CC1)CC2=O` [Compound 130] returned a melting point of 236.63 °C. Moreover, the IC50 on human ENT1 transporter was 9.77 nM.
Regarding `CCCCNc1ccc2c(c1)C(=O)CC1(CCN(CCNC(=O)c3c(Cl)cccc3Cl)CC1)O2` [Compound 97], the melting point lay within 153.71 to 156.93 °C. The IC50 on human ENT1 transporter was 12 nM.
The like results for `CC(=O)N1CCC(Nc2cc3c(cc2Cl)C(=O)NC2(CCN(CCNC(=O)c4c(Cl)cccc4Cl)CC2)O3)CC1` [Compound 96] were, in that order, 238.27 °C and 0.776 nM.
With `COC(=O)[C@H]1CC[C@H](Oc2cc3c(cc2C)C(=O)CC2(CCN(CCNC(=O)c4c(Cl)cccc4Cl)CC2)O3)CC1` (as salt: oxalate) [Compound 199], the melting point is 191.24 °C.
`CN1CCC(Oc2cc3c(cc2Cl)C(=O)NC2(CCN(CCNC(=O)c4c(Cl)cccc4Cl)CC2)O3)CC1` [Compound 26]: the IC50 at human ENT1 transporter is 11 nM.
In the case of `O=C1CC2(CCN(CCNC(=O)c3c(Cl)cccc3Cl)CC2)Oc2ccccc21` [Compound 45], the melting point fell in the range of 197.7 to 198.6 °C. In addition, on human ENT1 transporter, the IC50 was 417 nM.
In the case of `O=C1NC2(CCN(CCNC(=O)c3c(Cl)cccc3Cl)CC2)Oc2c(NC3CCCC3)cc(Cl)cc21` [Compound 223], the melting point was 238.02 °C. Moreover, on human ENT1 transporter, the IC50 is 3.8 nM.
For `CNc1cc2c(cc1Cl)CCC1(CCN(CCNC(=O)c3c(Cl)cccc3Cl)CC1)O2` [Compound 239], at human ENT1 transporter, the IC50 was 1.53 nM.
Regarding `Cc1cc2c(cc1NCCCO)OC1(CCN(CCNC(=O)c3c(Cl)cccc3Cl)CC1)CC2=O` [Compound 141], the IC50 at human ENT1 transporter was 3.72 nM.
Regarding `CC(=O)N1CCC(Oc2cc3c(cc2Cl)CCC2(CCN(CCNC(=O)c4c(Cl)cccc4Cl)CC2)O3)CC1` [Compound 117], the IC50 at human ENT1 transporter is 0.589 nM.
`CC(=O)N1CCC(Oc2cc3c(cc2Cl)C(=O)NC2(CCN(CCNC(=O)c4c(Cl)cccc4Cl)CC2)O3)CC1` [Compound 27] displayed a melting point of 146.87 °C. The IC50 on human ENT1 transporter was 0.776 nM.
On to `Nc1cc2c(cc1Cl)C(=O)NC1(CCN(CCNC(=O)c3c(Cl)cccc3Cl)CC1)O2` [Compound 1], for which the melting point is 245.39 °C. The IC50 on human ENT1 transporter was 89.1 nM.
As for `COC(=O)[C@H]1CC[C@H](Oc2cc3c(cc2C)C(=O)CC2(CCN(CCNC(=O)c4c(Cl)cccc4Cl)CC2)O3)CC1` [Compound 199], at human ENT1 transporter, the IC50 is 0.343 nM.
On the same count and under the same terms, in the case of `CNCCCNc1cc2c(cc1Cl)C(=O)NC1(CCN(CCNC(=O)c3c(Cl)cccc3Cl)CC1)O2` [Compound 43] it was 89.1 nM.
The molecule `Cc1cc(OC2CCCC2)c2c(c1)C(=O)CC1(CCN(CCNC(=O)c3c(Cl)cccc3Cl)CC1)O2` [Compound 189] returned a melting point of 135.95 °C. The IC50 at human ENT1 transporter was 2.57 nM.
The like results for `Cc1cccc(C)c1C(=O)NCCN1CCC2(CC1)NC(=O)c1cc(Cl)c(OC(C)C)cc1O2` [Compound 151] were, in that order, 201.61 to 204.2 °C and 22.9 nM.
In the case of `Cc1cc2c(cc1NC1CCCC1)OC1(CCN(CCNC(=O)c3c(Cl)cccc3Cl)CC1)CC2=O` [Compound 127], on human ENT1 transporter, the IC50 is 0.776 nM.
`Cc1c(O)ccc2c1OC1(CCN(CCNC(=O)c3c(Cl)cccc3Cl)CC1)CC2=O` (as salt: hydrochloric acid salt) [Compound 91] registered a melting point of 187.06 °C.
For the molecule `CC(=O)N1CCC(Oc2cc3c(cc2Cl)C=CC2(CCN(CCNC(=O)c4c(Cl)cccc4Cl)CC2)O3)CC1` [Compound 108], the IC50 on human ENT1 transporter was 0.0447 nM.
On the same count and under the same terms, in the case of `Cc1c(O)ccc2c1OC1(CCN(CCNC(=O)c3c(Cl)cccc3Cl)CC1)CC2=O` [Compound 91] it was 2.88 nM.
In the case of `O=C1CC2(CCN(CCNC(=O)c3c(Cl)cccc3Cl)CC2)Oc2cc(O)ccc21` [Compound 93], the melting point stood at 209.19 °C. Moreover, at human ENT1 transporter, the IC50 was 120 nM.
Turning to `O=C1NC2(CCN(CCNC(=O)c3c(Cl)cccc3Cl)CC2)Oc2c1cc(Cl)cc2N1CCOCC1` [Compound 205], the melting point came out at 245.16 °C. In addition, the IC50 on human ENT1 transporter was 107 nM.
Take `O=C1CC2(CCN(CCNC(=O)c3c(Cl)cccc3Cl)CC2)Oc2c1ccc(NC1CCCC1)c2Cl` [Compound 208]: the IC50 on human ENT1 transporter was 1.51 nM.
On to `COCNc1cc2c(cc1Cl)C(=O)NC1(CCN(CCNC(=O)c3c(Cl)cccc3Cl)CC1)O2` [Compound 2], for which the IC50 on human ENT1 transporter was 6.46 nM.
As to `CC(C)Nc1ccc2c(c1)OC1(CCN(CCNC(=O)c3c(Cl)cccc3Cl)CC1)NC2=O` [Compound 3], the IC50 at human ENT1 transporter is 4.27 nM.
The molecule `COCCCNc1cc2c(cc1C)C(=O)CC1(CCN(CCNC(=O)c3c(Cl)cccc3Cl)CC1)O2` (as salt: oxalate) [Compound 133] gave a melting point of 157.06 °C.
As to `COC(=O)[C@H]1CC[C@@H](Oc2cc3c(cc2C)C(=O)CC2(CCN(CCNC(=O)c4c(Cl)cccc4Cl)CC2)O3)CC1` [Compound 222], the IC50 at human ENT1 transporter was 0.531 nM.
Turning to `O=C1NC2(CCN(CCNC(=O)c3c(Cl)cccc3Cl)CC2)Oc2cc(OC3CCNCC3)c(Cl)cc21` [Compound 23], the IC50 on human ENT1 transporter was 10.2 nM.
As for `Nc1cc2c(cc1Cl)CCC1(CCN(CCNC(=O)c3c(Cl)cccc3Cl)CC1)O2` [Compound 10], the melting point was 191.14 °C. Further, the IC50 on human ENT1 transporter was 18.6 nM.
As to `CC(C)(C)OC(=O)N1CCC(Oc2cc3c(cc2Cl)C(=O)NC2(CCN(CCNC(=O)c4c(Cl)cccc4Cl)CC2)O3)CC1` [Compound 22], the melting point was determined as 172.85 °C. Further, the IC50 at human ENT1 transporter is 0.224 nM.

In general, melting point refers to the temperature of the solid-liquid transition.
